Data: patent US10570184B2, “GLP-1/glucagon receptor co-agonists for medical use” (Novo Nordisk A/S, priority 2014, dated 2020)
Starred links: 1 amine or outer side, 2 acyl side, 3 side chain; linkers in the order of their positions; H or OH if unused. Non-standard residues stand in square brackets, D forms with d. Residues, ends and D or L forms follow the SMILES beside them. Groups on a side chain read outwards from the residue. *: point of attachment. C18 diacid = O=C(O)CCCCCCCCCCCCCCCCC(=O)*; γGlu = O=C(O)[C@H](CCC(=O)[*:2])N[*:1]; Ac4c = NC1(C(=O)O)CCC1; AEEA = NCCOCCOCC(=O)O

Target: T1, human glucagon receptor (Homo sapiens, UniProt P47871)
T1 construct: expressed in transfected cells; host or cells: membranes of BHK cells, clone BHK hGCGR A3*25
T1 sequence (P47871 26-477): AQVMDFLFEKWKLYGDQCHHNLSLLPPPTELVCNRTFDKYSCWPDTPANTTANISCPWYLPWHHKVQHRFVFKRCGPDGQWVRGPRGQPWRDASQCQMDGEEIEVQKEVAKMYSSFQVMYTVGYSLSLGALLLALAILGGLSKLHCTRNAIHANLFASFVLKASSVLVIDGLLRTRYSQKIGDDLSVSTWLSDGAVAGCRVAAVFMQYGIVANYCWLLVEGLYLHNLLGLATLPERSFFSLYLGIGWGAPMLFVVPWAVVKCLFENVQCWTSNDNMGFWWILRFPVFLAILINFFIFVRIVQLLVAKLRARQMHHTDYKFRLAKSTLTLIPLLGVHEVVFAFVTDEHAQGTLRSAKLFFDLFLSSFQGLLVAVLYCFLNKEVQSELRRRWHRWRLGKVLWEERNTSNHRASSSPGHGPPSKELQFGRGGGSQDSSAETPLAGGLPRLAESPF
Experiment: Assay (II)(b) glucagon receptor binding, 125I-glucagon displacement SPA on BHK membranes
Conditions: without presence of serum albumin; read-out: GlucagonR IC50 (nM) [Assay (II)(b)]
Description: The glucagon receptor (glucagonR) binding activity is a measure of affinity of a derivative for the human glucagon receptor. The receptor binding of each compound to the human glucagon receptor was measured in a displacement binding assay. In this type of assay a labelled ligand (in this case 125I-glucagon) is bound to the receptor. Each derivative was added in a series of concentrations to isolated membranes containing the human glucagon receptor and displacement of the labelled ligand is monitored. The receptor binding was reported as the concentration at which half of the labelled ligand is displaced from the receptor, the IC50 value. In order to test the binding of the derivatives to albumin, the assay may be performed in a very low concentration of serum albumin (max. 0.001% final assay concentration) as well as in the presence of a higher concentration of serum albumin (0.2% final assay concentration). An increase of the IC50 value, in the presence of serum albumin indicates an affinity to serum albumin and represents a method to predict a protracted pharmacokinetic profile of the test substance in animal models. […] The protein concentration was determined. […]

IC50 [nM]	Structure (SMILES)
2.7	CC[C@H](C)[C@H](NC(=O)[C@H](CC(C)C)NC(=O)[C@H](Cc1c[nH]c2ccccc12)NC(=O)[C@H](CCC(N)=O)NC(=O)[C@@H](NC(=O)[C@H](Cc1ccccc1)NC(=O)[C@H](CCC(=O)O)NC(=O)[C@H](CCCNC(=N)N)NC(=O)[C@H](C)NC(=O)[C@H](CCCNC(=N)N)NC(=O)[C@H](CCCNC(=N)N)NC(=O)[C@H](CO)NC(=O)[C@H](CCC(=O)O)NC(=O)[C@H](CC(C)C)NC(=O)[C@H](Cc1ccc(O)cc1)NC(=O)[C@H](CCCCN)NC(=O)[C@H](CO)NC(=O)[C@H](CC(C)C)NC(=O)[C@H](CC(=O)O)NC(=O)[C@H](CO)NC(=O)[C@@H](NC(=O)[C@H](Cc1ccccc1)NC(=O)[C@@H](NC(=O)CNC(=O)[C@H](CCC(N)=O)NC(=O)C1(NC(=O)[C@@H](N)Cc2c[nH]cn2)CCC1)[C@@H](C)O)[C@@H](C)O)C(C)C)C(=O)N[C@@H](CCCCNC(=O)CNC(=O)[C@H](CO)NC(=O)[C@H](CCC(=O)O)NC(=O)CNC(=O)[C@H](CO)NC(=O)CC[C@H](NC(=O)CC[C@H](NC(=O)CCCCCCCCCCCCCCCCC(=O)O)C(=O)O)C(=O)O)C(=O)N[C@H](C(N)=O)[C@@H](C)O [Chem. 16, N^ε28-[2-[[(2S)-2-[[(2S)-4-carboxy-2-[[2-[[(2S)-2-[[(4S)-4-carboxy-4-[[(4S)-4-carboxy-4-(17-carboxyheptadecanoylamino)butanoyl]amino]butanoyl]amino]-3-hydroxypropanoyl]amino]acetyl]amino]butanoyl]amino]-3-hydroxypropanoyl]amino]acetyl]-[Acb2,Leu10,Glu15,Arg20,Glu21,Ile27,Lys28]-Glucagon amide] (HELM PEPTIDE1{H.[O=C(C1(N[*:1])CCC1)[*:2]].Q.G.T.F.T.S.D.L.S.K.Y.L.E.S.R.R.A.R.E.F.V.Q.W.L.I.K.T.[am]}|PEPTIDE2{[O=C(O)CCCCCCCCCCCCCCCCC(=O)[*:2]].[gGlu].[gGlu].S.G.E.S.G}$PEPTIDE1,PEPTIDE2,28:R3-8:R2$$$V2.0)
2.7	CC[C@H](C)[C@H](NC(=O)[C@H](CC(C)C)NC(=O)[C@H](Cc1c[nH]c2ccccc12)NC(=O)[C@H](CCC(N)=O)NC(=O)[C@@H](NC(=O)[C@H](Cc1ccccc1)NC(=O)[C@H](CCC(=O)O)NC(=O)[C@H](CCC(N)=O)NC(=O)[C@H](C)NC(=O)[C@H](CCCNC(=N)N)NC(=O)[C@H](CCCNC(=N)N)NC(=O)[C@H](CO)NC(=O)[C@H](CCC(=O)O)NC(=O)[C@H](CC(C)C)NC(=O)[C@H](Cc1ccc(O)cc1)NC(=O)[C@H](CCCCN)NC(=O)[C@H](CO)NC(=O)[C@H](CC(C)C)NC(=O)[C@H](CC(=O)O)NC(=O)[C@H](CO)NC(=O)[C@@H](NC(=O)[C@H](Cc1ccccc1)NC(=O)[C@@H](NC(=O)CNC(=O)[C@H](CCC(N)=O)NC(=O)C1(NC(=O)[C@@H](N)Cc2c[nH]cn2)CCC1)[C@@H](C)O)[C@@H](C)O)C(C)C)C(=O)N[C@@H](CCCCNC(=O)CC[C@H](NC(=O)COCCOCCNC(=O)COCCOCCNC(=O)CC[C@H](NC(=O)CC[C@H](NC(=O)CCCCCCCCCCCCCCCCC(=O)O)C(=O)O)C(=O)O)C(=O)O)C(=O)N[C@H](C(N)=O)[C@@H](C)O [Chem. 38, N^ε28-[(4S)-4-carboxy-4-[[2-[2-[2-[[2-[2-[2-[[(4S)-4-carboxy-4-[[(4S)-4-carboxy-4-(17-carboxyheptadecanoylamino)butanoyl]amino]butanoyl]amino]ethoxy]ethoxy]acetyl]amino]ethoxy]ethoxy]acetyl]amino]butanoyl]-[Acb2,Leu10,Glu15,Glu21,Ile27,Lys28]-Glucagon amide] (H-H[Ac4c]QGTFTSDLSKYLESRRAQEFVQWLIK([γGlu-AEEA-AEEA-γGlu-γGlu-C18 diacid])T-NH2; N-terminus assumed)
